Tests used:
[1] = time of release/action of active substances after application to the skin; assay type: in vivo; conditions: for time of release on application to the skin: Example 4, product as it is or mixed with cosmetic cream, gel or lotion
Protocol: The microspheres are constituted by a copolymer of 2 moles of styrene with 2 moles of butadiene and 1 mole of 2-aminoethanol methacrylate. They are prepared in the known manner, in aqueous dispersion with Na dodecylsulfate as a surfactant and K persulfate as a catalyst. After polymerization, the microspheres are neutralized, purified by aqueous dialysis and passed over an ion-exchange resin.
0.09 g of pyrrolidone carboxylic acid, which binds to the methacrylate --NH2 group forming a covalent amide bond, is added to 100 ml of suspension of 4 g of these microspheres numbering […] (average size 96 nm). Another purification is then carried out and 6.1 g of dimethyl silanol hyaluronate, the same as in example 1, are added to the suspension and adsorbed.
The resulting suspension of 106.1 g thus contains 0.09 g of pyrrolidone carboxylic acid and 0.28 g of the Si contained in dimethyl silanol hyaluronate. Application to the skin of the product as it is, or mixed with a cosmetic cream, gel or lotion leads to release of the pyrrolidone compound in 2 to 5 hours and release of the hyaluronate compound in 10 to 17 hours. A synergetic effect of the two active substances is also observed for 2 to 5 hours, followed by a longer period of hyaluronate action only.
The microspheres prepared in the known manner, described at the beginning of example 4, consist of a copolymer of 4 moles of styrene with 1 mole of acrylic acid.
(A)-100 g of an aqueous suspension of 5 g of microspheres are reacted with 0.126 g of theophylline, which binds to the acryl groups.
(B)-The microspheres are then given functional groups using diamine hexamethylene, after which they are treated with a 40 g/kg elastin aqueous solution. 0.3 g of elastin polypeptides thus bind to the copolymer.
(C)-The product obtained is purified and made to adsorb Ruscus Aculeatus glucosides, from an aqueous extract of this plant (Ruscus 1=33).

[2] = Protocol: 100 g of an aqueous suspension of 5 g of nanospheres having a diameter of about 70 to 130 nm (average 100 nm) are prepared by the copolymerization of an emulsion of 4 moles of styrene and 1 mole of acrylic acid, according to the technique described in example 2. 0.126 g of theophylline, which binds to the acrylic acid groups of the copolymer by an electronic-type chemical interaction, is added to these 100 g.
A liquid product (a-b) composed of two sets of copolymer/active substance nanospheres is thus obtained:
The liquid (a-b) is submitted to tests on an experimental model, reproducing diffusion phenomena in the skin.
The proportions of each of the active substances which may have been in contact with the skin in 3 hours is thus determined.
Given below are the percentages of the initial amount of each of these active substances which, according to the tests mentioned hereinabove, may have been diffused into the skin from the liquid studied:
They thus contained no --COOH groups likely to react with the --NH groups of theophylline. […]
As above, the amount of active principal available to the skin in 3 hours was determined. […]
The proportion of theophylline which is available to the skin in 3 hours and in 5 hours is then determined from 100 g of an aqueous suspension of 5 g of nanosphere charged as described above. […]

[3] = adsorption (charging) of active substance onto copolymer microspheres/nanospheres; assay type: physicochemical; conditions: 60% styrene / 40% methyl methacrylate copolymer, average 95 nm; room temperature, 48 hours

| Compound | time of release on application to the skin [1] [h] | amount available to the skin, tempering ratio without : with nanospheres [2] [times] | amount of active principal available to the skin in 3 hours [2] [%] | time of action after application ([1]; in vivo) [h] | microspheres are charged with dimethylsilanediol hyaluronate [3] [%] |
| --- | --- | --- | --- | --- | --- |
| O=C1CC[C@@H](C(=O)O)N1 [pyrrolidone carboxylic acid] | 2 to 5 | – | – | – | – |
| Cn1c(=O)c2[nH]cnc2n(C)c1=O [theophylline] | – | 2.5 | 20 | 2 to 8 | – |
| dimethylsilanediol hyaluronate | 10 to 17 | – | – | – | 30 |

Source: US5264207A, “Products for cutaneous applications with cosmetic and/or therapeutic effects” (EXSYMOL S.A.M., priority 1989, dated 1993)
